# Test results: patent publication US12648979B2, “Compositions comprising sulforaphane or a sulforaphane precursor and Moringa plant components” (Nutramax Laboratories, Inc., priority 2021, dated 2026)
# Key:
# [1] = test system: Epstein-Barr virus-early antigen; details: in vitro; cited from earlier work
# [2] = test system: NAD(P)H:quinone oxidoreductase 1 (NQO1) gene expression; assay: NQO1 gene expression in RAW 264.7 macrophage cell line, quantitative RT-PCR (Examples 6, 7, 11); type: cell-based; details: 0.5 μM SFN; 24 hours
# Description: In the study, the macrophage cell line RAW 264.7 was treated with dimethyl sulfoxide (DMSO) (vehicle control), sulforaphane (SFN), a maitake mushroom extract having about 20% beta-glucan content (Maitake), or the combination of sulforaphane and the maitake mushroom extract, for 24 hours. In particular, the cells were treated with one of the following: (i) DMSO (vehicle control), (ii) 0.5 μM SFN, (iii) 250 μg/mL Maitake, (iv) 500 μg/mL Maitake, (v) 750 μg/mL Maitake, (vi) 0.5 μM SFN and 250 μg/mL Maitake, (vii) 0.5 μM SFN and 500 μg/mL Maitake, and (viii) 0.5 μM SFN and 750 μg/mL Maitake. The gene expression of NQO-1 was analyzed via quantitative RT-PCR. The results, which are depicted in FIG. 2, show the following:
# In the study, the macrophage cell line RAW 264.7 was treated with DMSO (vehicle control), sulforaphane (SFN), a shiitake mushroom extract having at least 20% alpha-glucan content (Shiitake), or the combination of sulforaphane and the shiitake mushroom extract, for 24 hours. […] The gene expression of NQO1 was analyzed via quantitative RT-PCR. […]
# In the study, the macrophage cell line RAW 264.7 was treated with sulforaphane (SFN), Moringa plant components (MOR), or a combination of SFN and MOR, for 24 hours. […] The gene expression of NQO1 was analyzed via quantitative RT-PCR. […]
# [3] = test system: NAD(P)H:quinone oxidoreductase (NQO1); details: oral administration; cited from earlier work
# heme oxygenase-1 (HO-1) = details: oral administration; cited from earlier work
# mammary tumors = details: rat, in vivo; cited from earlier work
# [4] = test system: broccoli sprout-derived myrosinase; assay: Consumption of glucoraphanin by myrosinase as a function of ascorbic acid concentration (Example 3); type: biochemical; details: 600 μmoles/Liter ascorbic acid
# Description: A […] Interaction Chromatographic (HILIC) method was developed, comprising the following conditions: • Column: Waters BEH Amide, 1.7-μm particle size; 2.1 mm×100 mm; • Mobile Phase: 20% 10 mM Ammonium Acetate, pH 5.0; 80% acetonitrile; • Separation mode: isocratic; • Column Temperature: 70° C.; • Flow Rate: 0.7 mL/min.
# About 250 mg of broccoli seed extract containing about 12% (w/w) glucoraphanin were subjected to hydrolysis by a fixed concentration of broccoli sprout-derived myrosinase in the presence of variable concentration of ascorbic acid, ranging from 0 to 600 μmoles/Liter. The reaction mixtures were thermostated at 38° C.; aliquots were withdrawn every 15 minutes for 60 minutes, and concentration of glucoraphanin determined chromatographically. The rate of glucoraphanin consumption was interpreted as the rate its conversion to sulforaphane. Graphical representation of glucoraphanin content reduction as a function of increasing ascorbic acid concentration results in a series of linear plots; the slopes of the linear regression lines reflect the rate of glucoraphanin consumption, in pmoles/minute. It is apparent that in the presence of 600 μmoles/Liter concentration of ascorbic acid, the reaction rate increased 13-fold relative to that which proceeded in the absence of modulatory effects of ascorbic acid.
# myrosinase [5] = assay: Equimolar conversion of glucoraphanin to sulforaphane by myrosinase, HPLC (Example 4); type: biochemical, broccoli; details: PART 2, broccoli seed extract 250 mg
# Description: A two-part experiment was conducted to further elucidate the role of ascorbic acid in modulating myrosinase activity. All solutions were prepared in 20 mM Tris-buffered saline, at pH 7.5, previously identified as an optimal for myrosinase activity; each sample tube had 100 mg of freeze-dried broccoli powder accurately weighed in as a source of myrosinase. Experiment was conducted at 38° C. for 2 hours, with sample aliquots removed in 30-minute increments, and both glucoraphanin and sulforaphane content assessed by HPLC. […] A control sample contained no ascorbic acid, and the enzymatic conversion proceeded unassisted by a co-factor. PART 1. In the presence of the fixed concentration of ascorbic acid, 1 mmol/Liter, an increasing amount of broccoli seed extract (about 12% glucoraphanin, w/w) was added, ranging from 250 mg to 500 mg. PART 2. While keeping the amount of broccoli seed extract fixed at 250 mg, the concentration of ascorbic acid was varied from 0.4 mmol/Liter to 3.8 mmol/Liter.
# myrosinase [6] = assay: Conversion of glucoraphanin to sulforaphane in Simulated Intestinal Fluid (Example 5); type: biochemical, broccoli; details: 38° C., ascorbic acid 0.25 to 1.00 mmol/Liter, FIG. 1
# Description: Simulated Intestinal Fluid (SIF) powder, a commercially supplied concentrate closely approximating the human intestinal content in terms of composition, pH and ionic strength, was used. The experiment utilized a USP Dissolution Apparatus 2 (paddles), where into six dissolution vessels 500 mL of Simulated Intestinal Fluid was dispensed, along with 150 mg of freeze-dried broccoli sprout powder as a source of myrosinase. […] Aliquots were withdrawn every 15 minutes, and assayed for sulforaphane.
smiles,measurement,setting,value
CCCCCCCCC=CCCCCCCCC(=O)OCC1OC(OC2CCC3(C)C(=CCC4C3CCC3(C)C(C(C)CCC(CC)C(C)C)CCC43)C2)C(O)C(O)C1O [3-O-(6′-O-oleoyl-β-D-glucopyranosyl)-β-sitosterol],inhibitory effects on Epstein-Barr virus-early antigen,[1],significant inhibitory effects
C[C@@H]1O[C@@H](Oc2ccc(CN=C=S)cc2)[C@H](O)[C@H](O)[C@H]1O [4(α-L-rhamnosyloxy)-benzyl isothiocyanate],inhibitory effects on Epstein-Barr virus-early antigen,[1],significant inhibitory effects
CCOC(=O)NCc1ccc(O[C@@H]2O[C@@H](C)[C@H](O)[C@@H](O)[C@H]2O)cc1 [O-Ethyl-4-(α-L-rhamnosyloxy)benzyl carbamate],inhibitory effects on Epstein-Barr virus-early antigen,[1],significant inhibitory effects
"C[S+]([O-])CCCCN=C=S (centres unmarked) [SFN, 1-isothiocyanato-4-methylsulfinylbutane]",Fold increase in NQO-1 gene expression,[2],12.96
same,increase in NQO1 enzymatic activity in the mammary epithelium,[3],3 fold
same,elevated immunostaining of HO-1 in the mammary epithelium,heme oxygenase-1 (HO-1),4 fold
same,blocking the formation of mammary tumors,mammary tumors,effective in blocking the formation of mammary tumors
O=C1O[C@H]([C@@H](O)CO)C(O)=C1O [ascorbic acid],increase of reaction rate relative to absence of ascorbic acid,[4],13 fold
same,"ascorbic acid concentration up to which myrosinase-promoted conversion increases linearly, then levels off",myrosinase [5],about 2 mmol/L
same,yield of sulforaphane versus ascorbic acid concentration,myrosinase [6],direct correlation between larger yield of sulforaphane and higher concentrations of ascorbic acid
CCOC(=S)NCc1ccc(OC2OC(C)C(O)C(O)C2O)cc1 (centres unmarked) [niazimicin],inhibitory effects on Epstein-Barr virus-early antigen,[1],significant inhibitory effects
